From patent US20190151312A1, “HEPARAN SULFATE BIOSYNTHESIS INHIBITORS FOR THE TREATMENT OF DISEASES” (BioMarin Pharmaceutical Inc., priority 2014, published 2019)
Read-outs that look alike come from different tables or passages of the source.

Experiments:
[1] = test system: cultured primary human fibroblast from MPS patients; conditions: cited from earlier work
[2] = test system: GM01896 cells (MPS II dermal fibroblasts); test: Assay 1: MPS cellular assay, MPS II (heparan sulfate disaccharide biomarkers by LC-MS); assay type: cell-based, human; conditions: Assay 1 for MPS II, heparan sulfate disaccharide biomarkers (I2a4, I2a6, I2S0 and/or I2S6), read-out: IC50 Range
Procedure, shortened: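 MPS II patient dermal fibroblasts (GM01896) treated with compound at ≤30 μM for 4 to 21 days. Heparan sulfate GAGs isolated by anion exchange, digested with heparinases I-III, aniline-tagged against [13C6]aniline standards and quantified by LC-MS; IC50 from curve fitting. Viability monitored by alamar blue or ATP.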

Structure (SMILES)	IC50 ([2]; Homo sapiens, Fibroblast)	also measured
[Na+].[O-][Cl+2]([O-])[O-] [sodium chlorate]		effect on synthesis of PAPs (sulfate donor) ([1]; 30-60 mM sodium chlorate): inhibits the synthesis of PAPs; sulfation of heparan sulfate produced by cells ([1]; cells grown in the presence of sodium chlorate): reduced sulfation
Cn1nc(CN2CCCC2)c2ccc(-c3cc(Nc4ccc(Cl)cc4)nc(N4CCOCC4)n3)cc21 [(4-chlorophenyl){6-[1-methyl-3-(pyrrolidinylmethyl)(1H-indazol-6-yl)]-2-morpholin-4-ylpyrimidin-4-yl}amine]	500 to 1000 nM	
Cc1nn(C)c2cc(-c3cc(Nc4ccc(-n5nccn5)cc4)nc(N4CCOCC4)n3)ccc12 [[6-(1,3-dimethyl(1H-indazol-6-yl))-2-morpholin-4-ylpyrimidin-4-yl](4-(1,2,3-triazol-2-yl)phenyl)amine]	< 500 nM	
Cc1c(C)n(C)c2cc(Nc3cc(-c4ccc5cnn(C)c5c4)nc(N4CCOCC4)n3)ccc12 [[6-(1-methyl(1H-indazol-6-yl))-2-morpholin-4-ylpyrimidin-4-yl](1,2,3-trimethylindol-6-yl)amine]	1000 to 5000 nM	
Cn1cnc(-c2ccc(Nc3cc(-c4ccc5cnn(C)c5c4)nc(N4CCOCC4)n3)cc2)c1 [[6-(1-methyl(1H-indazol-6-yl))-2-morpholin-4-ylpyrimidin-4-yl][4-(1-methylimidazol-4-yl)phenyl]amine]	500 to 1000 nM	
Cc1nc(-c2ccc(Nc3cc(-c4ccc5cnn(C)c5c4)nc(N4CCOCC4)n3)cc2)no1 [[4-(5-methyl(1,2,4-oxadiazol-3-yl))phenyl][6-(1-methyl(1H-indazol-6-yl))-2-morpholin-4-ylpyrimidin-4-yl]amine]	1000 to 5000 nM	
CN(C)CCc1nn(C)c2cc(-c3cc(Nc4ccc(Cl)cc4)nc(N4CCOCC4)n3)ccc12 [[2-(6-{6-[(4-chlorophenyl)amino]-2-morpholin-4-ylpyrimidin-4-yl}-1-methyl(1H-indazol-3-yl))ethyl]dimethylamine]	500 to 1000 nM	
Cc1c2ccc(-c3cc(Nc4ccc(Cl)cc4)nc(N4CCOCC4)n3)cc2nn1CCN(C)C [[2-(6-{6-[(4-chlorophenyl)amino]-2-morpholin-4-ylpyrimidin-4-yl}-3-methyl(2H-indazol-2-yl))ethyl]dimethylamine]	1000 to 5000 nM	
Clc1ccc(Nc2cc(-c3ccc4cnn(CCCN5CCOCC5)c4c3)nc(N3CCOCC3)n2)cc1 [(4-chlorophenyl){2-morpholin-4-yl-6-[1-(3-morpholin-4-ylpropyl)(1H-indazol-6-yl)]pyrimidin-4-yl}amine]	1000 to 5000 nM	
Cn1ncc2ccc(Nc3cc(-c4ccc5cnn(C)c5c4)nc(N4CCOCC4)n3)cc21 [(1-methyl(1H-indazol-6-yl))[6-(1-methyl(1H-indazol-6-yl))-2-morpholin-4-ylpyrimidin-4-yl]amine]	1000 to 5000 nM	
Cc1nn(C)c2cc(-c3cc(Nc4ccc(-c5nnc[nH]5)cc4)nc(N4CCOCC4)n3)ccc12 [(4-(4H-1,2,4-triazol-3-yl)phenyl)[6-(1,3-dimethyl(1H-indazol-6-yl))-2-morpholin-4-ylpyrimidin-4-yl]amine]	< 500 nM	
Cc1nn(C)c2cc(-c3cc(Nc4ccc(Cl)cc4)nc(N4CCOCC4)n3)ncc12 [[6-(1,3-dimethylpyrazolo[5,4-d]pyridin-6-yl)-2-morpholin-4-ylpyrimidin-4-yl](4-chlorophenyl)amine]	< 500 nM	
Cn1cc(-c2ccc(Nc3cc(-c4ccc5cnn(C)c5c4)nc(N4CCOCC4)n3)cc2)nn1 [[4-(1-methyl(1,2,3-triazol-4-yl))phenyl][6-(1-methyl(1H-indazol-6-yl))-2-morpholin-4-ylpyrimidin-4-yl]amine]	1000 to 5000 nM	
Cn1cnc2ccc(Nc3cc(-c4ccc5cnn(C)c5c4)nc(N4CCOCC4)n3)cc21 [[6-(1-methyl(1H-indazol-6-yl))-2-morpholin-4-ylpyrimidin-4-yl](1-methylbenzimidazol-6-yl)amine]	500 to 1000 nM	
Cc1nn(C)c2cc(-c3cc(Nc4ccc5[nH]ccc5c4)nc(N4CCOCC4)n3)ccc12 [[6-(1,3-dimethyl(1H-indazol-6-yl))-2-morpholin-4-ylpyrimidin-4-yl]indol-5-ylamine]	1000 to 5000 nM	
Cc1c[nH]nc1-c1ccc(Nc2cc(-c3ccc4cnn(C)c4c3)nc(N3CCOCC3)n2)cc1 [[6-(1-methyl(1H-indazol-6-yl))-2-morpholin-4-ylpyrimidin-4-yl][4-(4-methylpyrazolyl)phenyl]amine]	1000 to 5000 nM	
CNC(=O)c1ccc(Nc2cc(-c3ccc4cnn(CC5CC5)c4c3)nc(N3CCOCC3)n2)cc1 [[4-({6-[1-(cyclopropylmethyl)(1H-indazol-6-yl)]-2-morpholin-4-ylpyrimidin-4-yl}amino)phenyl]-N-methylcarboxamide]	< 500 nM	

Structure (SMILES)	IC50 ([2]; Homo sapiens, Fibroblast)	also measured
COCCn1ncc2ccc(-c3cc(Nc4ccc(Cl)cc4)nc(N4CCOCC4)n3)cc21 [(4-chlorophenyl){6-[1-(2-methoxyethyl)(1H-indazol-6-yl)]-2-morpholin-4-ylpyrimidin-4-yl}amine]	1000 to 5000 nM	
CNC(=O)c1ccc(Nc2cc(-c3ccc4ncn(CCN5CCCC5)c4c3)nc(N3CCOCC3)n2)cc1 [N-methyl[4-({2-morpholin-4-yl-6-[1-(2-pyrrolidinylethyl)benzimidazol-6-yl]pyrimidin-4-yl}amino)phenyl]carboxamide]	1000 to 5000 nM	
Cc1nn(C)c2cc(-c3cc(Nc4ccc(-c5cocn5)cc4)nc(N4CCOCC4)n3)ccc12 [[6-(1,3-dimethyl(1H-indazol-6-yl))-2-morpholin-4-ylpyrimidin-4-yl](4-(1,3-oxazol-4-yl)phenyl)amine]	< 500 nM	
CNC(=O)c1ccc(Nc2cc(-c3ccc4c(c3)ncn4CCCN3CCCC3)nc(N3CCOCC3)n2)cc1 [N-methyl[4-({2-morpholin-4-yl-6-[1-(3-pyrrolidinylpropyl)benzimidazol-5-yl]pyrimidin-4-yl}amino)phenyl]carboxamide]	500 to 1000 nM	
Cn1nc(Cl)c2ccc(-c3cc(Nc4ccc(Cl)cc4)nc(N4CCOCC4)n3)cc21 [[6-(3-chloro-1-methyl(1H-indazol-6-yl))-2-morpholin-4-ylpyrimidin-4-yl](4-chlorophenyl)amine]	1000 to 5000 nM	
Cc1nn(C)c2cc(-c3cc(Nc4ccc5ncn(C)c5c4)nc(N4CCOCC4)n3)ccc12 [[6-(1,3-dimethyl(1H-indazol-6-yl))-2-morpholin-4-ylpyrimidin-4-yl](1-methylbenzimidazol-6-yl)amine]	1000 to 5000 nM	
Cc1nn(C)c2cc(-c3cc(Nc4ccc5nn(C)nc5c4)nc(N4CCOCC4)n3)ccc12 [[6-(1,3-dimethyl(1H-indazol-6-yl))-2-morpholin-4-ylpyrimidin-4-yl](2-methyl(2-hydrobenzotriazol-5-yl))amine]		IC50 [2]: 1000 to 5000 nM
CN(C)CCCn1cnc2ccc(-c3cc(Nc4ccc(Cl)cc4)nc(N4CCOCC4)n3)cc21 [[3-(6-{6-[(4-chlorophenyl)amino]-2-morpholin-4-ylpyrimidin-4-yl}benzimidazolyl)propyl]dimethylamine]		IC50 [2]: 500 to 1000 nM
CC(=O)Nc1ccc(Nc2cc(-c3ccc4cnn(C)c4c3)nc(N3CCOCC3)n2)cc1 [N-(4-{[6-(1-methyl(1H-indazol-6-yl))-2-morpholin-4-ylpyrimidin-4-yl]amino}phenyl)acetamide]	500 to 1000 nM	
NC(=O)c1ccc(Nc2cc(-c3ccc4ncn(CCN5CCOCC5)c4c3)nc(N3CCOCC3)n2)cc1 [4-({2-morpholin-4-yl-6-[1-(2-morpholin-4-ylethyl)benzimidazol-6-yl]pyrimidin-4-yl}amino)benzamide]	1000 to 5000 nM	
Cc1nn(C)c2cc(-c3cc(Nc4ccc(-c5nnc(C(F)(F)F)[nH]5)cc4)nc(N4CCOCC4)n3)ccc12 [[6-(1,3-dimethyl(1H-indazol-6-yl))-2-morpholin-4-ylpyrimidin-4-yl]{4-[5-(trifluoromethyl)(4H-1,2,4-triazol-3-yl)]phenyl}amine]	1000 to 5000 nM	
CNC(=O)c1ccc(Nc2cc(-c3ccc4ncn(CCOC)c4c3)nc(N3CCOCC3)n2)cc1 [[4-({6-[1-(2-methoxyethyl)benzimidazol-6-yl]-2-morpholin-4-ylpyrimidin-4-yl}amino)phenyl]-N-methylcarboxamide]	< 500 nM	
Cn1nc(CCCN)c2ccc(-c3cc(Nc4ccc(Cl)cc4)nc(N4CCOCC4)n3)cc21 [{6-[3-(3-aminopropyl)-1-methyl(1H-indazol-6-yl)]-2-morpholin-4-ylpyrimidin-4-yl}(4-chlorophenyl)amine]	1000 to 5000 nM	
Clc1ccc(Nc2cc(-c3ccc4cn(CC5CC5)nc4c3)nc(N3CCOCC3)n2)cc1 [(4-chlorophenyl){6-[2-(cyclopropylmethyl)(2H-indazol-6-yl)]-2-morpholin-4-ylpyrimidin-4-yl}amine]	1000 to 5000 nM	
Cn1cnc2ccc(-c3cc(Nc4ccc(Br)cc4)nc(N4CCOCC4)n3)cc21 [(4-bromophenyl)[6-(1-methylbenzimidazol-6-yl)-2-morpholin-4-ylpyrimidin-4-yl]amine]	500 to 1000 nM	
Cc1c(Nc2ccc(Cl)cc2)nc(N2CCOCC2)nc1-c1ccc2cnn(C)c2c1 [(4-chlorophenyl)[5-methyl-6-(1-methyl(1H-indazol-6-yl))-2-morpholin-4-ylpyrimidin-4-yl]amine]	1000 to 5000 nM	
